Calls of active or inactive are those of the source.
How the values were obtained:
[1] = molecular target: T1, RNA-binding protein pos-1 (Caenorhabditis elegans, UniProt G5EF15); assay: inhibitors of POS-1/mex-3 RNA binding, dose response, biochemical, fluorescence polarization (AID 1964);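 note: purified POS-1 fused to maltose binding protein made in E. coli; potency of compounds blocking POS-1 binding to fluorescent RNA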
T1 sequence (G5EF15 whole entry): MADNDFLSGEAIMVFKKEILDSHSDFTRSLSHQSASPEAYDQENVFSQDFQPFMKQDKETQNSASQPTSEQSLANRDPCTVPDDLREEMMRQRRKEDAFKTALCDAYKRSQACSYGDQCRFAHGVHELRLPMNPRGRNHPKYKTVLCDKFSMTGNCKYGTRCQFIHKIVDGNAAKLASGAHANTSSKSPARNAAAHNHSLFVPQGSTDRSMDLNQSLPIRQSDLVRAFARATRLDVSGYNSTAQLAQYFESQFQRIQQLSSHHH

[2] = molecular target: Caspase-7 (Homo sapiens, UniProt P55210); assay: human caspase-7 inhibitors, dose response, selectivity assay for caspase-6 inhibitor project, biochemical, DEVD-R110 fluorescence, cherry-pick (AID 743295)
[3] = molecular target: Troponin, cardiac muscle (Homo sapiens, UniProt P19429+P45379+P63316); assay: inhibitors of cardiac thin filament calcium sensitivity, dose response, biochemical, fluorescence, cardiac regulated thin filaments, triplicate IC50 (AID 504742); format: protein-complex assay
[4] = molecular target: Dual specificity tyrosine-phosphorylation-regulated kinase 1A (Rattus norvegicus, UniProt Q63470); format: biochemical, Homo sapiens
[5] = molecular target: T2, 1-phosphatidylinositol 4,5-bisphosphate phosphodiesterase gamma-1 (Homo sapiens, UniProt P19174); assay: Counterscreen for inhibitors of phospholipase C isozymes (PLC-B3): Fluorescence-based biochemical high throughput dose response assay to identify inhibitors of phospholipase C isozymes (PLC-gamma1).
T2 sequence (P19174 whole entry): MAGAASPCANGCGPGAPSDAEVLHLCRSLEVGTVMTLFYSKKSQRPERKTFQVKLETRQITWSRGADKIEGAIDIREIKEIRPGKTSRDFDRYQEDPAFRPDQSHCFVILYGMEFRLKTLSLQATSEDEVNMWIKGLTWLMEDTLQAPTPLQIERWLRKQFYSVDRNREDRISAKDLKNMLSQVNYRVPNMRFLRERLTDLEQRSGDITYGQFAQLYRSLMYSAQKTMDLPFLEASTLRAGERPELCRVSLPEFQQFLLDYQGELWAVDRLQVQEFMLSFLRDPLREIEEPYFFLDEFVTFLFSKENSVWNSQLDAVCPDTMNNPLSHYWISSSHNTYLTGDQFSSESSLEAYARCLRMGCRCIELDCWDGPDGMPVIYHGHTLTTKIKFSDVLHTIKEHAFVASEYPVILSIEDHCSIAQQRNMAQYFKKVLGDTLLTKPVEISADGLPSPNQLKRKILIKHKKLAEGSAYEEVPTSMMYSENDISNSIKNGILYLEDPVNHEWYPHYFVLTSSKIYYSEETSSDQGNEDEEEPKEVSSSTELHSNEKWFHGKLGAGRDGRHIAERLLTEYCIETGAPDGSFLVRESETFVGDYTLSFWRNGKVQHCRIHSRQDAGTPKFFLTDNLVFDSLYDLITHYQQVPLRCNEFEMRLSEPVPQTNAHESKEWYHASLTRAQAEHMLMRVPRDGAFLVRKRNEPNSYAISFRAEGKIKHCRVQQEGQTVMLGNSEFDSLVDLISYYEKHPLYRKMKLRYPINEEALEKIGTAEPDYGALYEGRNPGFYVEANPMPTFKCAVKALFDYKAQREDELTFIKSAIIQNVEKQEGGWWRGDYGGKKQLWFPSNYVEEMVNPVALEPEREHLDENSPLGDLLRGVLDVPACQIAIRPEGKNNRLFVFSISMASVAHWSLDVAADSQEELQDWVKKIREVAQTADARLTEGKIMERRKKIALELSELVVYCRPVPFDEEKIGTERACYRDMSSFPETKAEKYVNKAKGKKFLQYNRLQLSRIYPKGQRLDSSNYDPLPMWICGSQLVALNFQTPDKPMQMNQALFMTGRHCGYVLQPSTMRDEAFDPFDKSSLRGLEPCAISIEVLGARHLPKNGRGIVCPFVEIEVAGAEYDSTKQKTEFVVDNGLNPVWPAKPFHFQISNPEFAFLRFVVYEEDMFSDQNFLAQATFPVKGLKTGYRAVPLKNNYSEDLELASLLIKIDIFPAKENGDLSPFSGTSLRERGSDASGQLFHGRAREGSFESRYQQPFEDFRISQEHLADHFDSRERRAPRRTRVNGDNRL

[6] = molecular target: T3, Dual specificity protein phosphatase 3 (Homo sapiens, UniProt P51452); assay: VHR1 phosphatase inhibitors, primary screen, biochemical, absorbance, uHTS (AID 1654)
[7] = molecular target: T3, Dual specificity protein phosphatase 3; assay: VHR1 phosphatase inhibitors, biochemical (AID 1878)
[8] = molecular target: T4, Dual specificity protein phosphatase 6 (Rattus norvegicus, UniProt Q64346); assay: MKP-3 phosphatase inhibitors, primary screen, biochemical, rat enzyme, in vitro (AID 425)
T4 sequence (Q64346 whole entry): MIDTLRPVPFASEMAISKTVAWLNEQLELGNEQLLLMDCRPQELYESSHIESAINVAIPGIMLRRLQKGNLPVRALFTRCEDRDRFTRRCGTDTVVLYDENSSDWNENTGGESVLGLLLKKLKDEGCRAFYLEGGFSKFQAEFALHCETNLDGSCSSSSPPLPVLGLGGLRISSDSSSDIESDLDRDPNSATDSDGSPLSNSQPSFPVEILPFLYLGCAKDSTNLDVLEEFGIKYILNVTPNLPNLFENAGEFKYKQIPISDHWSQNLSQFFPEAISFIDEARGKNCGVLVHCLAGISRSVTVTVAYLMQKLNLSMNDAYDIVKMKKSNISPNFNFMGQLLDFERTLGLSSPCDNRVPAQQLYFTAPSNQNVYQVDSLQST

[9] = molecular target: Caspase-8 (Homo sapiens, UniProt Q14790); assay: caspase-8 inhibition counter-screen, dose response, selectivity assay for caspase-6 inhibitor project, biochemical, Z-IETD-R110 fluorescence, cherry-picked samples (AID 743294)
[10] = molecular target: Polyadenylate-binding protein 1 (Homo sapiens, UniProt P11940); assay: PABP1 MLLE–PAM2 interaction inhibitors, dose response, miRNA deadenylation inhibitor project, biochemical, fluorescence polarization, Cy5-PAM2 peptide, secondary (AID 602260); format: functional; settings: read-out: IC50_Mean
[11] = molecular target: Albumin (Bos taurus, UniProt P02769); assay: Counterscreen for inhibitors of T-cell receptor (TCR)-CD3 interaction: Fluorescence-based biochemical high throughput dose response assay to identify inhibitors of T-cell receptor (TCR)-CD3 interaction using a TAMRA-labeled BSA probe.; format: functional
Chain of Albumin (P02769 whole entry): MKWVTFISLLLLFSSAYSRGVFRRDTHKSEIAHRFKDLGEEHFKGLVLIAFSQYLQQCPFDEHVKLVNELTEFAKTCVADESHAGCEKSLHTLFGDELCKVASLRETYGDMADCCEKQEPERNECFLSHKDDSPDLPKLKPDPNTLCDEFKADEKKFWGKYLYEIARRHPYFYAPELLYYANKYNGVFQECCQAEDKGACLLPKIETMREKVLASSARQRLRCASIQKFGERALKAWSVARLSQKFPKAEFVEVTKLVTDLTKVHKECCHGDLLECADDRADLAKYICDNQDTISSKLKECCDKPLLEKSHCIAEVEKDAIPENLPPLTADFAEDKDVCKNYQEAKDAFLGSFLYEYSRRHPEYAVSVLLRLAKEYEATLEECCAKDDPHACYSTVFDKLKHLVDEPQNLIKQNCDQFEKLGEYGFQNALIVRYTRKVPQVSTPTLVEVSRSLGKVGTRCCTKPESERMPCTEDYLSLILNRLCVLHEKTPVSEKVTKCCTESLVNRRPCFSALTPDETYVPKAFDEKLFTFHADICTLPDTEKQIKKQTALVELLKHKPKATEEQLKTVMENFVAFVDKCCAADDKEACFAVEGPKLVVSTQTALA

T3 sequence (P51452 whole entry): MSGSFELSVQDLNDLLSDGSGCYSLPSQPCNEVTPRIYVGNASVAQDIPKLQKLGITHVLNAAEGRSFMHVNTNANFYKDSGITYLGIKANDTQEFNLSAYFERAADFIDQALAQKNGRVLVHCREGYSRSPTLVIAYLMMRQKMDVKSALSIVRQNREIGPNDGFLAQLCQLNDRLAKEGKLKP
Chain of Caspase-7 (P55210 24-198 limits assumed): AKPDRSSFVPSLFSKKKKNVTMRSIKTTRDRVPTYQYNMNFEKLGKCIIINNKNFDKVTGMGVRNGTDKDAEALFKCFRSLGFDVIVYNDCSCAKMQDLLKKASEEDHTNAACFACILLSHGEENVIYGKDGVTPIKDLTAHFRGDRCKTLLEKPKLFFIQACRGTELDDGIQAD
Chain of Caspase-7 (P55210 207-303 limits assumed): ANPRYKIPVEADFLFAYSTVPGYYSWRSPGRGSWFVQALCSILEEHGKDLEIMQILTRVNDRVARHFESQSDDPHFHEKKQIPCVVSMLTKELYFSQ
Chain of Polyadenylate-binding protein 1 (P11940 whole entry): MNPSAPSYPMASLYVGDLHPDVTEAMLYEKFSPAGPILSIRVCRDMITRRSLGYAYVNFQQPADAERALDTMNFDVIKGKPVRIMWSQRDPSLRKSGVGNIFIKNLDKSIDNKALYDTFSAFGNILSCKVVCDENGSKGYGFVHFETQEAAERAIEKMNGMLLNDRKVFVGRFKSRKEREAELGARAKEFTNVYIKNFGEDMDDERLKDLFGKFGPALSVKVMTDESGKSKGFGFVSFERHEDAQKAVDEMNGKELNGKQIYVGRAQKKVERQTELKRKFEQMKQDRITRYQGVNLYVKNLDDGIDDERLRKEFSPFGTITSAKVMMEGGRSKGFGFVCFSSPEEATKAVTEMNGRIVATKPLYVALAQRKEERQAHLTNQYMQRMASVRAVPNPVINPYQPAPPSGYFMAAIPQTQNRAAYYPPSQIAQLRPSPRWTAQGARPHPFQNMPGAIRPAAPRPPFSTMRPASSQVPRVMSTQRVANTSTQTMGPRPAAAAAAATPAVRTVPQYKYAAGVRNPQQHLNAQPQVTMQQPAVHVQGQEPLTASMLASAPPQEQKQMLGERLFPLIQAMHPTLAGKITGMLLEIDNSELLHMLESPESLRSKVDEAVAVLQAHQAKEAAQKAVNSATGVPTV
Chain of Caspase-8 (Q14790 217-374 limits assumed): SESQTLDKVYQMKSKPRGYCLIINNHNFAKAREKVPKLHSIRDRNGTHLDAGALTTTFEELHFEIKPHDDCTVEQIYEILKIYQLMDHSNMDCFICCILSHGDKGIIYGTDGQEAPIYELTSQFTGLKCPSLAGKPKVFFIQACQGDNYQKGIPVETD
Chain of Caspase-8 (Q14790 385-479 limits assumed): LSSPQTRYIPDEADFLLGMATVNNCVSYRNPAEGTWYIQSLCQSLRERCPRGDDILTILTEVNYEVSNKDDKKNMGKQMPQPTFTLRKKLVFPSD

**Q.** `O=c1c(O)cccc2cc(O)c(O)c(O)c12` [PURPUROGALLIN] was tested. Which EC50 [1] did it give?
**A.** 6.57 µM (active)

**Q.** And the AC50 [2]?
**A.** 1.09 µM (active)

**Q.** What about the IC50 [3] of the same molecule?
**A.** 3.62 µM (active)

**Q.** And the AC50 [4]?
**A.** 1.61 µM (active)

**Q.** And the IC50 [5]?
**A.** 20.9 µM (inactive)

**Q.** What about the IC50 [6] of the same molecule?
**A.** < 0.98 µM (inactive)

**Q.** What about the IC50 [7] of the same molecule?
**A.** < 1.23 µM (inactive)

**Q.** What about the IC50 [8] of the same molecule?
**A.** 29.2 µM (active)

**Q.** What about the AC50 [9] of the same molecule?
**A.** > 70 µM (inactive)

**Q.** And the IC50 [10]?
**A.** > 66 µM (inactive)

**Q.** What about the IC50 [11] of the same molecule?
**A.** > 94.1 µM (inactive)

— ChEMBL document CHEMBL1201862, “PubChem BioAssay data set” (2004)
